Measured values: US10300065B2, “Method of treating or prevention of atherothrombotic events in patients with history of myocardial infarction” (ASTRAZENECA AB, priority 2015, dated 2019)
Where two headings read alike, the source gives them in different places.

Columns and labels:
[1] = tested on: patients with a history of myocardial infarction; conditions: for proportion of patients who prematurely discontinued treatment: over the duration of the trial
From the text: Any erroneously treated patients (e.g., randomized to ticagrelor but actually given placebo) were to be accounted for in the actual treatment group.
The primary efficacy endpoint was the composite of cardiovascular death, myocardial infarction, or stroke. Secondary endpoints were cardiovascular death and all-cause mortality. The analysis of secondary endpoints proceeded in a hierarchical fashion, starting with cardiovascular death and then death from any cause. Additional endpoints listed below were evaluated on an exploratory basis. Exploratory efficacy endpoints included substituting coronary heart disease death for cardiovascular death, and the additional end points of urgent coronary revascularization, unstable angina, and transient ischemic attack. The primary safety endpoint was TIMI major bleeding. Other safety endpoints included intracranial hemorrhage (ICH) and fatal bleeding. […] A central clinical events committee whose members were unaware of the treatment assignments adjudicated all efficacy endpoints and bleeding episodes.
Safety analyses included all randomized patients who received at least one dose of study drug and for whom post-dose data were available. Patients were censored at the first of the pre-specified Common Study End Date, withdrawal of consent, or the last clinical event assessment. Safety was analyzed as on-treatment including all events occurring after first dose and within 7 days after the last dose of study drug. […] Event rates are expressed as Kaplan-Meier estimates of cumulative incidence.

[2] = cited from earlier work
[3] = tested on: patients with acute coronary syndrome; conditions: cited from earlier work
[4] = room temperature; crystalline powder; cited from earlier work
[5] = 90 mg bid (N = 6988), listed as ticagrelor
[6] = 90 mg bid, intention-to-treat population

CCCSc1nc(N[C@@H]2C[C@H]2c2ccc(F)c(F)c2)c2nnn([C@@H]3C[C@H](OCCO)[C@@H](O)[C@H]3O)c2n1 [Ticagrelor, (1S,2S,3R,5S)-3-[7-{[(1R,2S)-2-(3,4-difluorophenyl)cyclopropyl]amino}-5-(propylthio)-3H-[1,2,3]-triazolo[4,5-d]pyrimidin-3-yl]-5-(2-hydroxyethoxy)cyclopentane-1,2-diol]
proportion of patients who prematurely discontinued treatment ([1]; 60 mg): 28.7% | Dyspnea, 3-year event rate ([1]; 90 mg bid): 18.9% | Fatal bleeding: ARI (%) ([1]; 90 mg bid): −0.15% | Hypotension ([1]; 90 mg bid): 0.66 events/100 pt years | ICH: ARI (%) ([1]; 90 mg bid): 0.09% | ICH: NNH ([1]; 90 mg bid): 1111 | TIMI major bleeding: ARI (%) ([1]; 90 mg bid): 1.54% | TIMI major bleeding: NNH ([1]; 90 mg bid): 65 | frequency of death (including bleeding) ([1]; 90 mg bid): 4.8% | frequency of death, bleeding events excluded ([1]; 90 mg bid): 4.4% | median duration of resolved dyspnea adverse events ([1]; 90 mg bid): 22 days | Adverse event leading to death: (%) ([1]; 90 mg bid (N = 6988)): (2.3) % | Adverse event leading to death: n ([1]; 90 mg bid (N = 6988)): 161 | Adverse event leading to discontinuation of study drug: (%) ([1]; 90 mg bid (N = 6988)): (18.7) % | Adverse event leading to discontinuation of study drug: n ([1]; 90 mg bid (N = 6988)): 1306 | Any adverse event: (%) ([1]; 90 mg bid (N = 6988)): (76.2) % | Any adverse event: n ([1]; 90 mg bid (N = 6988)): 5327 | Any serious adverse event: (%) ([1]; 90 mg bid (N = 6988)): (21.7) % | Any serious adverse event: n ([1]; 90 mg bid (N = 6988)): 1514 | Bleeding leading to study drug discontinuation: 3-year Kaplan-Meier estimate ([1]; 90 mg bid (N = 6988)): (7.80) % | Bleeding leading to study drug discontinuation: n ([1]; 90 mg bid (N = 6988)): 454 | Bleeding requiring transfusion: 3-year Kaplan-Meier estimate ([1]; 90 mg bid (N = 6988)): (2.40) % | Bleeding requiring transfusion: n ([1]; 90 mg bid (N = 6988)): 122 | Bradyarrhythmia adverse event: (%) ([1]; 90 mg bid (N = 6988)): (1.5) % | Bradyarrhythmia adverse event: n ([1]; 90 mg bid (N = 6988)): 105 | Dyspnea AE: (%) ([1]; 90 mg bid (N = 6988)): (17.22) % | Dyspnea AE: n ([1]; 90 mg bid (N = 6988)): 1204 | Dyspnea SAE: (%) ([1]; 90 mg bid (N = 6988)): (0.3) % | Dyspnea SAE: n ([1]; 90 mg bid (N = 6988)): 22 | Dyspnea leading to study drug discontinuation: (%) ([1]; 90 mg bid (N = 6988)): (6.2) % | Dyspnea leading to study drug discontinuation: n ([1]; 90 mg bid (N = 6988)): 430 | Fatal Bleeding: 3-year Kaplan-Meier estimate ([1]; 90 mg bid (N = 6988)): (0.11) % | Fatal Bleeding: n ([1]; 90 mg bid (N = 6988)): 6 | Fatal bleeding or non-fatal intracranial hemorrhage: 3-year Kaplan-Meier estimate ([1]; 90 mg bid (N = 6988)): (0.71) % | Fatal bleeding or non-fatal intracranial hemorrhage: n ([1]; 90 mg bid (N = 6988)): 33 | Gout adverse event: (%) ([1]; 90 mg bid (N = 6988)): (1.4) % | Gout adverse event: n ([1]; 90 mg bid (N = 6988)): 99 | Intracranial Hemorrhage: 3-year Kaplan-Meier estimate ([1]; 90 mg bid (N = 6988)): (0.56) % | Intracranial Hemorrhage: n ([1]; 90 mg bid (N = 6988)): 29 | Renal adverse event: (%) ([1]; 90 mg bid (N = 6988)): (2.4) % | Renal adverse event: n ([1]; 90 mg bid (N = 6988)): 166 | Serious adverse event leading to discontinuation of study drug: (%) ([1]; 90 mg bid (N = 6988)): (3.7) % | Serious adverse event leading to discontinuation of study drug: n ([1]; 90 mg bid (N = 6988)): 256 | TIMI Major bleeding: 3-year Kaplan-Meier estimate ([1]; 90 mg bid (N = 6988)): (2.60) % | TIMI Major bleeding: n ([1]; 90 mg bid (N = 6988)): 127 | TIMI Minor bleeding: 3-year Kaplan-Meier estimate ([1]; 90 mg bid (N = 6988)): (1.31) % | TIMI Minor bleeding: n ([1]; 90 mg bid (N = 6988)): 66 | Bleeding leading to study drug discontinuation: 3-year Kaplan-Meier estimate [1, 5]: 7.8% | Bleeding requiring transfusion: 3-year Kaplan-Meier estimate [1, 5]: 2.4% | Dyspnea leading to study drug discontinuation: (%) [1, 5]: 6.5% | Fatal Bleeding: 3-year Kaplan-Meier estimate [1, 5]: 0.1% | Intracranial Hemorrhage: 3-year Kaplan-Meier estimate [1, 5]: 0.6% | TIMI Major bleeding: 3-year Kaplan-Meier estimate [1, 5]: 2.60% | Bleeding leading to study drug discontinuation: HR ([1]; 90 mg bid vs Placebo): 5.67 | Bleeding requiring transfusion: HR ([1]; 90 mg bid vs Placebo): 3.75 | Dyspnea AE: HR ([1]; 90 mg bid vs Placebo): 3.55 | Dyspnea SAE: HR ([1]; 90 mg bid vs Placebo): 3.02 | Dyspnea leading to study drug discontinuation: HR ([1]; 90 mg bid vs Placebo): 8.89 | Fatal Bleeding: HR ([1]; 90 mg bid vs Placebo): 0.58 | Fatal bleeding or non-fatal intracranial hemorrhage: HR ([1]; 90 mg bid vs Placebo): 1.20 | Intracranial Hemorrhage: HR ([1]; 90 mg bid vs Placebo): 1.44 | TIMI Major bleeding: HR ([1]; 90 mg bid vs Placebo): 2.69 | TIMI Minor bleeding: HR ([1]; 90 mg bid vs Placebo): 4.15 | TIMI major bleeding events per year if 10,000 patients were started on treatment versus placebo ([1]; 90 mg bid, intention-to-treat data): 41 | Death: (%) [1, 6]: (4.6) % | Death: n [1, 6]: 326 | Non-Cardiovascular death: (%) [1, 6]: (2.0) % | Non-Cardiovascular death: n [1, 6]: 142 | proportion of patients who prematurely discontinued treatment ([1]; 90 mg): 32.0% | serum uric acid level increase from baseline ([1]; PEGASUS, 60 mg bid): approximately 0.2 mg/dL | Gout, patients ([1]; PEGASUS, experimental arm): 1.5% | dyspneic episodes characterized as mild ([1]; either dose of ticagrelor): 57% | dyspneic episodes characterized as moderate ([1]; either dose of ticagrelor): 38% | dyspnea as a serious adverse event, 3-year rate ([1]; patients on ticagrelor): 0.3% | increase in AUC ([2]; high-fat meal): 21% | mean absolute bioavailability ([2]; human, in vivo): about 36% | steady state volume of distribution ([2]; human, in vivo): 88 L | median tmax ([2]; in patients after administration of ticagrelor): 1.5 h | major adverse cardiovascular events including cardiovascular death compared with clopidogrel 75 mg once daily ([3]; 90 mg twice daily added to aspirin for up to 1 year, acute coronary syndrome): reduced | effect on pulmonary function ([3]; PLATO substudy, 199 subjects, after one month or after at least 6 months of chronic treatment): no indication of an adverse effect on pulmonary function | reports of gout ([3]; PLATO, each treatment group): 0.6% | serum uric acid level increase from baseline ([3]; PLATO, ticagrelor 90 mg bid): approximately 0.6 mg/dL | aqueous solubility [4]: approximately 10 μg/mL
